Legend:
[1] = biological target: T1, dihydrofolate reductase (DHFR) (Homo sapiens, UniProt P00374); assay: Control experiment: biotinylated GroEL chaperonin on a BLI substrate dipped into a DHFR solution; assay type: binding
T1 sequence (P00374 1-187): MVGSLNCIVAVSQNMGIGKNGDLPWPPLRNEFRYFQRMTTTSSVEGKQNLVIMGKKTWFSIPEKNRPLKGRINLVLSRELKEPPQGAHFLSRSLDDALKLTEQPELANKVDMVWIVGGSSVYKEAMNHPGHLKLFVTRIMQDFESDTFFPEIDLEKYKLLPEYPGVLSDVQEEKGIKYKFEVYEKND
From the text: The chaperonin can bind particular target proteins as they transiently expose hydrophobic surfaces from their partially folded forms. The partitioning kinetics can be followed using the BLI high throughput system (Fortebio Octet™) or SPR or other suitable technology. With BLI as an example, the chaperonin can be attached to the BLI tip substrate to dip into a target protein solution. Alternatively, the capture protein and/or target protein can be attached to the BLI tip substrate to dip into a chaperonin solution. The chaperonin will bind with transitioned target proteins (e.g., second conformation), but has no or low binding with folded target proteins (e.g., first conformation). […] Potential protein stabilizers can be screened to see which ones inhibit the chaperonin from binding to the target protein by the stabilizer retaining the protein in the first conformation. In the presence of a potential protein stabilizer, the partitioning kinetic amplitudes show significant declines (e.g., inhibition of partitioning) or even abolish global partitioning, which is scored as a potential lead compound. Once identified, potential protein stabilizer compounds can be further tested with target proteins in secondary screens. […]

GroEL chaperonin = GroEL chaperonin (Escherichia coli, UniProt P0A6F5); assay: Binding of the substance to the chaperonin itself
CFTR-NBD1 = CFTR-NBD1 (Homo sapiens, UniProt P13569); assay: GroEL binding to CFTR-NBD1 bound directly to the substrate; details: CFTR-NBD1 introduced to GTP prior to GroEL
From the text: Additionally, the CFTR nucleotide binding domain (e.g., CFTR-NBD1) may be bound directly to the substrate, which is then introduced to a GroEL buffer. […] When the CFTR-NBD1 is not introduced to GTP prior to being introduced to GroEL, there is a much higher single. Other substances besides GTP can also be screen to identify inhibitors of forming the CFTR-NBD1/GroEL complex.

CFTR = CFTR (Homo sapiens, UniProt P13569); assay: BLI chaperonin (GroEL) binding to antibody-captured CFTR, with or without stabilizer (scheme of FIG. 9); details: compared with chaperonin alone and buffer signal
From the text: In one embodiment, a linker antibody (e.g., anti-mouse antibody) can be attached to the substrate, which is then introduced to a capture antibody (e.g., CFTR antibody), and which is then introduced to a target protein (e.g., cystic fibrosis transmembrane conductance regulator, CFTR). In some instances the capture antibody can be linked directly to the substrate or through a suitable linker. However, the linker antibody can position the capture antibody a suitable distance from the substrate by antibody extension. If no stabilizer is present, a chaperonin (e.g., GroEL) can bind with the target protein to provide a large signal.
As shown, a substrate 202 has an anti-mouse antibody 906 bound thereto. Then, a CFTR antibody 908 is associated with the anti-mouse antibody 906. CFTR 910 is then introduce to and bound with the CFTR antibody 908 before a chaperonin 914 (e.g., GroEL) is introduced to the CFTR/CFTR antibody complex. […] When there is no stabilizer C, the chaperonin 514 binds with the CFTR/CFTR antibody complex to form complex 920 and to produce a large signal. When the stabilizer C is present, there is a decreased binding signal to indicate that the chaperonin cannot bind with the CFTR/CFTR antibody complex. […]

GroEL chaperonin, sequence (P0A6F5 2-548): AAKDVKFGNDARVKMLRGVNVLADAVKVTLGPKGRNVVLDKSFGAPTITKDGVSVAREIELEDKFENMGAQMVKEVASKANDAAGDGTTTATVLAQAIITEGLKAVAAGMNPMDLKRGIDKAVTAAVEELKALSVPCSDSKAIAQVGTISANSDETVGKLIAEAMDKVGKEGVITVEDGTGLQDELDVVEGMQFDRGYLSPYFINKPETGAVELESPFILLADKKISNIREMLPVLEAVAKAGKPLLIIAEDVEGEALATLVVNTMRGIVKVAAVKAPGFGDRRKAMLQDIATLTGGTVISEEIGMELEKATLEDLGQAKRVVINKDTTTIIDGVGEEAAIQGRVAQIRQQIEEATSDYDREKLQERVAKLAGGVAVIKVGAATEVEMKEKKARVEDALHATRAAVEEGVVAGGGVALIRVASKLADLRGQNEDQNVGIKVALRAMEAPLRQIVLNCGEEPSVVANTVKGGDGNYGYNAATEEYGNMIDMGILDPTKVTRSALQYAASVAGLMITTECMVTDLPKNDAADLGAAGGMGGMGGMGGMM
CFTR-NBD1, sequence (P13569 423-646 limits assumed): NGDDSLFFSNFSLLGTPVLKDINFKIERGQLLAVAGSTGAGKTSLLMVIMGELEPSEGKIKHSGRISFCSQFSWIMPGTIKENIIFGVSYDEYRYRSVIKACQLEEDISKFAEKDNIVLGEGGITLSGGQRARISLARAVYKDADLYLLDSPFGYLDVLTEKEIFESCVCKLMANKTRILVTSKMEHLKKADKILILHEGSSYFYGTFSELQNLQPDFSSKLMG
CFTR, sequence (P13569 whole entry, species assumed): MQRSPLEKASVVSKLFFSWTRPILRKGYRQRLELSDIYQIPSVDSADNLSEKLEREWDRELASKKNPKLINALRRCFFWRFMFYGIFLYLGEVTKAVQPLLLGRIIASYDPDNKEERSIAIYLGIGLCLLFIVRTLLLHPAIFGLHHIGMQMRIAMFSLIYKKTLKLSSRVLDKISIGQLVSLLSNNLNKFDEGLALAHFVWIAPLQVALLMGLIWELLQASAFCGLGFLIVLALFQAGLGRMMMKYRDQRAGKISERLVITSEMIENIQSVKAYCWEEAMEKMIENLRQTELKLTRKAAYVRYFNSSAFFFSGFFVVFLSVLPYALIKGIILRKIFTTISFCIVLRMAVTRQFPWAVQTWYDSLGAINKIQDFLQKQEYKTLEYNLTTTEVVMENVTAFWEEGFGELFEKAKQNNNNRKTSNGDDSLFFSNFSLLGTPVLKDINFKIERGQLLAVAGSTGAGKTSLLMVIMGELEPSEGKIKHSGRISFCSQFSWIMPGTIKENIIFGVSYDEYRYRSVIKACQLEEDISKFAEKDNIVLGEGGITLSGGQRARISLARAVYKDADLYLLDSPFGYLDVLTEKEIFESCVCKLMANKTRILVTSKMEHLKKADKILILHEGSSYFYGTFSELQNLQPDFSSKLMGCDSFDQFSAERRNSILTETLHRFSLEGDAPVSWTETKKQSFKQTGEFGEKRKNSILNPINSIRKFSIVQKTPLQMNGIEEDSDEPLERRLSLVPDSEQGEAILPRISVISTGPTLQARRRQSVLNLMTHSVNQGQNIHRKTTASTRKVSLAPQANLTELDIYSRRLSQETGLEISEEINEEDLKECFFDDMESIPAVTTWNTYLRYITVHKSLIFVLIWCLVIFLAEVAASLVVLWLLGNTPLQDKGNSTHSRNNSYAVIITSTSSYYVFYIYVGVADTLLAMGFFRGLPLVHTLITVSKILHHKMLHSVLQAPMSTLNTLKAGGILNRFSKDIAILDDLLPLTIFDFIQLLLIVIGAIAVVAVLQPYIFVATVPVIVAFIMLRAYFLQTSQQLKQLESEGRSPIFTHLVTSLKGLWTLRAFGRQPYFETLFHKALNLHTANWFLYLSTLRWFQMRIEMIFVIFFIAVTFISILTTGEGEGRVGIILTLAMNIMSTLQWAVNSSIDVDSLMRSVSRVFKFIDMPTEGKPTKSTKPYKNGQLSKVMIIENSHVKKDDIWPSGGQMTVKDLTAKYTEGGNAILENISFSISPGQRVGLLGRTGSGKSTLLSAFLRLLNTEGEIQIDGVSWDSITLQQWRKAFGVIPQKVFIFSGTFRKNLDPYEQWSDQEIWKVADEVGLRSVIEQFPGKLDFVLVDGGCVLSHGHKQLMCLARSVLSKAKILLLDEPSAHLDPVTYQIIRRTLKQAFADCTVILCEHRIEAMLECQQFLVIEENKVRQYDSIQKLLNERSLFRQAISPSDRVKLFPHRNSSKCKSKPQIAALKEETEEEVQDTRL

Compound	signal of GroEL-DHFR interaction ([1]; BLI, NADPH e.g. 10 mM)	signal of GroEL-DHFR interaction, combination ([1]; combination of GroEL and DHFR and 10 mM NADPH)	binding to the GroEL chaperonin (GroEL chaperonin)	signal of GroEL binding to CFTR-NBD1 (CFTR-NBD1)	chaperonin binding signal (stabilization of CFTR) (CFTR)
NC(=O)C1=CN([C@@H]2O[C@H](COP(=O)(O)OP(=O)(O)OC[C@H]3O[C@@H](n4cnc5c(N)ncnc54)[C@H](OP(=O)(O)O)[C@@H]3O)[C@@H](O)[C@H]2O)C=CC1 [NADPH]	decrease the signal	further reduce the signal			
Nc1nc2c(ncn2[C@@H]2O[C@H](COP(=O)(O)OP(=O)(O)OP(=O)(O)O)[C@@H](O)[C@H]2O)c(=O)[nH]1 [GTP, guanosine triphosphate]			does not bind	no signal or a low single	decreased the chaperonin binding and decreased the signal

— patent US10254290B2, “Systems and methods for identifying protein stabilizers” (The University of Kansas, priority 2012, dated 2019)
